Measured values as given in patent EP3064205A1, “Therapeutic use of isomeric forms of 2-(4-chlorophenyl)quinolin-4-yl)(piperidin-2-yl)methanol” (Glionova AB, priority 2015, dated 2016).
Where two headings read alike, the source gives them in different places.

How the values were obtained:
Assay in all cases: 3D clonogenic assay (PDX)
Assay type in all cases: cell-based, human
LXFA 1647 = conditions: LXFA 1647, Lung Adeno; for IC50: Homo sapiens
Procedure: (§1) The anti-tumor efficacy of S1 in the patient-derived tumor xenograft (PDX) tumor panel was assessed, where the efficacy of S1 in PDX tumor panel in the 96-well format, in 10 concentrations in duplicate was performed. Colony formation of tumor cell suspensions in a soft-agar matrix was observed and quantified. The output is IC50 values and dose response-relationships based on number of colonies in control and treatment wells, as identified by an automated image analysis algorithm. Stock solution of S1 was prepared in 100% DMSO at 10 mM concentration (stored at -20°C) and reused for each experiment. Compound final test concentrations: Dilution series ½ i.e.: 50µM, 15, 5, 1.5, 0.5, 0.15, 0.05, 0.015, 0.005 and 0.0015.
(§2) Tumor xenografts (also referred to as patient-derived tumor xenografts) were passaged as subcutaneous xenografts in NMRI nu/nu mice. Tumor xenograft were removed from mice under sterile conditions, mechanically disaggregated and subsequently incubated with an enzyme cocktail consisting of collagenase type IV (41 U/mL), DNase I (125 U/mL), hyaluronidase type III (100 U/mL) and dispase II (1.0 U/mL) in RPMI 1640 medium at 37°C for 60 - 120 minutes. Cells were passed through sieves of 100 µm and 40 µm mesh size and washed with RPMI 1640 medium. The percentage of viable cells was determined in a Neubauer-hemocytometer using trypan blue exclusion. Aliquots of the cells were frozen down, and stored in liquid nitrogen.
(§3) The clonogenic assay test was carried out in 96 well plate format. For each test a frozen aliquot of tumor cells prepared from tumor xenografts was thawed and assay plates were prepared as follows: each test well contained 3 layers of equal volume, 2 layers of semi-solid medium (bottom and top layer), and one layer of medium supernatant, with or without test compound. The bottom layer consisted of 0.05 mL/well Iscove's Modified Dulbecco's Medium (Invitrogen), supplemented with 20% (v/v) fetal calf serum (Sigma), 0.01% (w/v) gentamicin (Invitrogen) and 0.75% (w/v) agar (BD Biosciences). Tumor cells were added to 0.05 mL of the same culture medium supplemented with 0.4% (w/v) agar and plated onto the bottom layer. After 24 h, test compounds were added after serial dilution in DMSO and transfer in cell culture medium, and left on the cells for the duration of the experiment (continuous exposure, 0.05 mL drug overlay). Every dish included six untreated control wells and drug-treated groups in duplicate at 10 concentrations. Cultures were incubated at 37 °C and 7.5% CO2 in a humidified atmosphere for 8 to 13 days and monitored closely for colony growth using an inverted microscope. Within this period, ex vivo tumor growth lead to the formation of colonies with a diameter of >50 µm. At the time of maximum colony formation, counts were performed with an automatic image analysis system. 24 h prior to evaluation, vital colonies were stained with a sterile aqueous solution of 2-(4-iodophenyl)-3-(4-nitrophenyl)-5-phenyltetrazolium chloride (1 mg/mL, 100 µL/well). Sigmoidal concentration-response curves were fitted to the data points obtained for each tumor model using 4 parameter non-linear curve fit (Oncotest Warehouse Software). IC50 values are reported as relative IC50 values, being the concentration of test compound that give a response (inhibition of colony formation/viability) half way between the top and bottom plateau of the sigmoidal concentration-response curve (inflection point of the curve), or as absolute IC50 values, being the concentration of test compound at the intersection of the concentration-response curves with T/C = 50%. For calculation of mean IC50 values the geometric mean was used. Results are presented as mean graph plots or heat maps (individual IC50 values relative to the geometric mean IC50 value) over all cell lines as tested.

PAXF 1900 = conditions: PAXF 1900, Pancreas; for IC50: Homo sapiens
Procedure: as §1, §2, §3

GXF 97 = conditions: GXF 97, Gastric; for IC50: Homo sapiens
Procedure: as §1, §2, §3

CXF 2025 = conditions: CXF 2025, Colorectal; for IC50: Homo sapiens
Procedure: as §1, §2, §3

SXFS 627 = conditions: SXFS 627, Sarcoma Soft Tissue; for IC50: Homo sapiens
Procedure: as §1, §2, §3

PAXF 546 = conditions: PAXF 546, Pancreas; for IC50: Homo sapiens, PAXF546
Procedure: as §1, §2, §3

GXF 1172 = conditions: GXF 1172, Gastric; for IC50: Homo sapiens
Procedure: as §1, §2, §3

OVXF 1544 = conditions: OVXF 1544, Ovarian; for IC50: Homo sapiens
Procedure: as §1, §2, §3

PAXF 2059 = conditions: PAXF 2059, Pancreas; for IC50: Homo sapiens
Procedure: as §1, §2, §3

MEXF 1792 = conditions: MEXF 1792, Melanoma; for IC50: Homo sapiens
Procedure: as §1, §2, §3

CXF 1729 = conditions: CXF 1729, Colorectal; for IC50: Homo sapiens
Procedure: as §1, §2, §3

PXF 1752 = conditions: PXF 1752, Pleuramesothelioma; for IC50: Homo sapiens
Procedure: as §1, §2, §3

IC50 (LXFA 1647; read-out: abs. IC50): 12.1 µM
IC50 (LXFA 1647; read-out: rel. IC50): 11.9 µM
IC50 (PAXF 1900; read-out: abs. IC50): 13.2 µM
IC50 (PAXF 1900; read-out: rel. IC50): 12.2 µM
IC50 (GXF 97; read-out: abs. IC50): 6.21 µM
IC50 (GXF 97; read-out: rel. IC50): 5.71 µM
IC50 (CXF 2025; read-out: abs. IC50): 8.87 µM
IC50 (CXF 2025; read-out: rel. IC50): 8.61 µM
IC50 (SXFS 627; read-out: abs. IC50): 5.84 µM
IC50 (SXFS 627; read-out: rel. IC50): 5.74 µM
IC50 (PAXF 546; read-out: abs. IC50): 9.22 µM
IC50 (PAXF 546; read-out: rel. IC50): 9.07 µM
IC50 (GXF 1172; read-out: abs. IC50): 12.8 µM
IC50 (GXF 1172; read-out: rel. IC50): 12.5 µM
IC50 (OVXF 1544; read-out: abs. IC50): 13.5 µM
IC50 (OVXF 1544; read-out: rel. IC50): 12.8 µM
IC50 (PAXF 2059; read-out: abs. IC50): 13.8 µM
IC50 (PAXF 2059; read-out: rel. IC50): 13 µM
IC50 (MEXF 1792; read-out: abs. IC50): 6.19 µM
IC50 (MEXF 1792; read-out: rel. IC50): 6.15 µM
IC50 (CXF 1729; read-out: abs. IC50): 8.87 µM
IC50 (CXF 1729; read-out: rel. IC50): 8.82 µM
IC50 (PXF 1752; read-out: abs. IC50): 8.98 µM
IC50 (PXF 1752; read-out: rel. IC50): 8.85 µM
SMILES: O[C@H](c1cc(-c2ccc(Cl)cc2)nc2ccccc12)[C@@H]1CCCCN1 [S1, (R)-(2-(4-chlorophenyl)quinolin-4-yl)((S)-piperidin-2-yl)methanol]
b (bottom plateau of concentration-effect curve) (LXFA 1647): 13
t (top plateau of concentration-effect curve) (LXFA 1647): 98
b (bottom plateau of concentration-effect curve) (PAXF 1900): 33
t (top plateau of concentration-effect curve) (PAXF 1900): 114
b (bottom plateau of concentration-effect curve) (GXF 97): 20
t (top plateau of concentration-effect curve) (GXF 97): 97
b (bottom plateau of concentration-effect curve) (CXF 2025): 33
t (top plateau of concentration-effect curve) (CXF 2025): 97
b (bottom plateau of concentration-effect curve) (SXFS 627): 7
t (top plateau of concentration-effect curve) (SXFS 627): 96
b (bottom plateau of concentration-effect curve) (PAXF 546): 25
t (top plateau of concentration-effect curve) (PAXF 546): 96
b (bottom plateau of concentration-effect curve) (GXF 1172): 28
t (top plateau of concentration-effect curve) (GXF 1172): 79
b (bottom plateau of concentration-effect curve) (OVXF 1544): 22
t (top plateau of concentration-effect curve) (OVXF 1544): 107
b (bottom plateau of concentration-effect curve) (PAXF 2059): 18
t (top plateau of concentration-effect curve) (PAXF 2059): 130
b (bottom plateau of concentration-effect curve) (MEXF 1792): 5
t (top plateau of concentration-effect curve) (MEXF 1792): 99
b (bottom plateau of concentration-effect curve) (CXF 1729): 8
t (top plateau of concentration-effect curve) (CXF 1729): 104
b (bottom plateau of concentration-effect curve) (PXF 1752): 15
t (top plateau of concentration-effect curve) (PXF 1752): 109
